For assay [1], the target named is Amyloid-beta precursor protein (Homo sapiens) (UniProt P05067). The assay is described as follows: Inhibition of amyloid beta (1 to 42) (unknown origin) oligomerization assessed as fold change in half-life of aggregation extension/reduction at 1:10 Abeta:compound ratio by thioflavin T assay based fluorescence microscopy.
The target is the same in assay [2]. The assay is described as follows: Inhibition of amyloid beta (1 to 42) (unknown origin) oligomerization assessed as reduction in intensity of experimental fluorescence plateau at 1:10 Abeta:compound ratio by thioflavin T assay based fluorescence microscopy. Set-up: scale not given: the % may be the effect or the level left.
For assay [3] the target is unchanged. Kind of assay: Inhibition of amyloid beta (1 to 42) (unknown origin) oligomerization assessed as fold change in half-life of aggregation extension/reduction at 1:1 Abeta:compound ratio by thioflavin T assay based fluorescence microscopy.
The target is the same in assay [4]. Kind of assay: Inhibition of amyloid beta (1 to 42) (unknown origin) oligomerization assessed as reduction in intensity of experimental fluorescence plateau at 1:1 Abeta:compound ratio by thioflavin T assay based fluorescence microscopy.
For assay [5] the target is unchanged. The assay is described as follows: Inhibition of amyloid beta (1 to 42) (unknown origin) fibril formation at 100 uM after 4 to 24 hrs by transmission electron microscopy.
Assay [6] has the same target. The assay is described as follows: Inhibition of amyloid beta (1 to 42) (unknown origin) oligomer formation at 1:10 Abeta:compound ratio after 4 to 6 hrs by capillary electrophoresis.
For assay [7] the target is unchanged. The assay is described as follows: Inhibition of amyloid beta (1 to 42) (unknown origin) oligomer formation at 1:1 Abeta:compound ratio after 4 to 6 hrs by capillary electrophoresis.
Assay [8] has the same target. Kind of assay: Inhibition of amyloid beta (1 to 42) (unknown origin) oligomerization assessed as fold change in half-life of aggregation extension/reduction at 1:5 Abeta:compound ratio by thioflavin T assay based fluorescence microscopy.
Assay [9] has the same target. Kind of assay: Inhibition of amyloid beta (1 to 42) (unknown origin) oligomerization assessed as reduction in intensity of experimental fluorescence plateau at 1:5 Abeta:compound ratio by thioflavin T assay based fluorescence microscopy. Also noted: scale not given: the % may be the effect or the level left.
Assay [10] has the same target. The assay is described as follows: Inhibition of amyloid beta (1 to 42) (unknown origin) oligomer formation at 100 uM after 4 to 6 hrs by capillary electrophoresis.
Assay [11] shares this target. The assay is described as follows: Inhibition of amyloid beta (1 to 42) (unknown origin) oligomer formation assessed as monomer stabilization at 100 uM after 4 to 6 hrs by capillary electrophoresis.
Assay [12] has the same target. The assay is described as follows: Inhibition of amyloid beta (1 to 42) (unknown origin) oligomerization assessed as increase in intensity of experimental fluorescence plateau at 1:10 Abeta:compound ratio by thioflavin T assay based fluorescence microscopy. Set-up: scale not given: the % may be the effect or the level left.
For assay [13] the target is unchanged. Kind of assay: Inhibition of amyloid beta (1 to 42) (unknown origin) oligomer formation at 1:2 Abeta:compound ratio after 4 to 6 hrs by capillary electrophoresis.

Each structure is given as a SMILES string. The source made the active and inactive calls. The rule behind the calls is not given here. Numbered stars: 1 amine (or outer) side, 2 acyl side, 3 side chain; on linkers, the order of the positions; unused ones are H or OH. Square brackets hold non-standard residues; d marks the D form. Peptide text beside a SMILES is read from it. * marks the point of attachment. X1 = O=C(CCOC[C@H]1O[C@@H](OCCCN[*:1])[C@H](O)[C@@H](O)[C@@H]1O)[*:2]; X2 = O=C(CCOC[C@H]1O[C@@H](OCCN[*:1])[C@H](O)[C@@H](O)[C@@H]1O)[*:2]; X4 = O=C(CCOC[C@H]1O[C@H](OCCCN[*:1])[C@H](O)[C@@H](O)[C@@H]1O)[*:2]; X3 = O=C(CCOC[C@H]1O[C@H](OCCN[*:1])[C@H](O)[C@@H](O)[C@@H]1O)[*:2]; Boc = CC(C)(C)OC(=O)*

Sequence of Amyloid-beta precursor protein (Homo sapiens) (P05067 whole entry): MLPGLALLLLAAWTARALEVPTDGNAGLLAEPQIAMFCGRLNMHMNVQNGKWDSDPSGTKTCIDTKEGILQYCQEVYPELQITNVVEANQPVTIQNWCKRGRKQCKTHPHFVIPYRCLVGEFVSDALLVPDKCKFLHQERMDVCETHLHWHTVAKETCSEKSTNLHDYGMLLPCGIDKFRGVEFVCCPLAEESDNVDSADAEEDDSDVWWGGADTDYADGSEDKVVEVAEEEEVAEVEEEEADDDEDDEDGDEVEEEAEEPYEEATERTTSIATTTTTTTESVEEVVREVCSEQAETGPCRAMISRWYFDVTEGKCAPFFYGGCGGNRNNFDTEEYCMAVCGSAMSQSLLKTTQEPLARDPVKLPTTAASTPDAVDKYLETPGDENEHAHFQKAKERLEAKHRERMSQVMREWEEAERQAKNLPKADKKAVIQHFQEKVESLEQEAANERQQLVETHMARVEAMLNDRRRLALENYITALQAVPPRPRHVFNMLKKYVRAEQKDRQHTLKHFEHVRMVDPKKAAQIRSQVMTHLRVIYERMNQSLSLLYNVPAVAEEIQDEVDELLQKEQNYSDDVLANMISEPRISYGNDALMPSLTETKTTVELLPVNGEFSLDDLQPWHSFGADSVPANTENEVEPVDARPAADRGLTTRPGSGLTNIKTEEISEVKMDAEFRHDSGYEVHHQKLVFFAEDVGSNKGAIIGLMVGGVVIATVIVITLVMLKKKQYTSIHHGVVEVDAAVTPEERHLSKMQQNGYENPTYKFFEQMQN

On to `COC(=O)[C@H](CC(C)C)NC(=O)[C@@H](NC(=O)CCOC[C@H]1O[C@@H](OCCCNC(=O)[C@@H](NC(=O)[C@H](C)NC(=O)OC(C)(C)C)C(C)C)[C@H](O)[C@@H](O)[C@@H]1O)C(C)C` (Boc-AV[X1]VL-OMe), for which the fold change (FC) in assay [1] was found to be 1.9. In addition, in [2], the Activity was 37%. Also, in [3], the “fold change in aggregation half-life” value was “inactive”. The inhibition result in [4], in [5], in [6] and in assay [7] was “inactive” throughout.
For `COC(=O)[C@H](CC(C)C)NC(=O)[C@@H](NC(=O)CCOC[C@H]1O[C@@H](OCCNC(=O)[C@@H](NC(=O)[C@H](C)N)C(C)C)[C@H](O)[C@@H](O)[C@@H]1O)C(C)C` (H-AV[X2]VL-OMe), the “fold change (FC)” value in assay [1] is “inactive”. The result in assay [2] was inactive. Further, the “fold change in aggregation half-life” value in assay [3] is “inactive”. Moreover, in assay [4], the inhibition result was “inactive”.
As for `COC(=O)[C@H](CC(C)C)NC(=O)[C@@H](NC(=O)CCOC[C@H]1OC(O)[C@H](O)[C@@H](O)[C@@H]1O)C(C)C` (stereo partly drawn), in [1], the “fold change (FC)” value is “inactive”. In addition, the result in assay [2] was inactive. Moreover, in [3], the “fold change in aggregation half-life” value was “inactive”. Also, in assay [4], the inhibition entry is “inactive”.
On to `COC(=O)[C@H](CC(C)C)NC(=O)[C@@H](NC(=O)CCOC[C@H]1O[C@@H](OCCCNC(=O)[C@@H](NC(=O)[C@H](C)N)C(C)C)[C@H](O)[C@@H](O)[C@@H]1O)C(C)C` (H-AV[X1]VL-OMe), for which the fold change (FC) in assay [1] was determined as 2.8; in assay [8] it was 2.1. For the same molecule, the values for the Activity in assay [2] and in [9] were 56% and 40%, respectively. For the same molecule, the “fold change in aggregation half-life” value in assay [3] was “inactive”. Further, the inhibition entry in assay [4] is “inactive”. Besides, the inhibition entry in assay [5], in assay [10], in [11], in assay [6] and in [7] was “Active” throughout.
Consider `COC(=O)[C@H](CC(C)C)NC(=O)[C@@H](NC(=O)CCOC[C@H]1O[C@H](OCCCNC(=O)[C@@H](NC(=O)[C@H](C)NC(=O)OC(C)(C)C)C(C)C)[C@H](O)[C@@H](O)[C@@H]1O)C(C)C` (Boc-AV[X4]VL-OMe), for which the “fold change (FC)” value in assay [1] was “inactive”. Further, in assay [2], the outcome was inactive. Besides, the “fold change in aggregation half-life” value in [3] was “inactive”. In assay [4], the inhibition result was “inactive”.
As to `COC(=O)[C@H](CC(C)C)NC(=O)[C@@H](NC(=O)CCOC[C@H]1O[C@@H](OCCNC(=O)[C@@H](NC(=O)[C@H](C)NC(=O)OC(C)(C)C)C(C)C)[C@H](OCc2ccccc2)[C@@H](OCc2ccccc2)[C@@H]1OCc1ccccc1)C(C)C`, the fold change (FC) in assay [1] was 0.8. In addition, the Activity in assay [12] amounted to 38%. Besides, in [3], the “fold change in aggregation half-life” value was “inactive”. Further, in assay [4], the inhibition result is “inactive”.
With `COC(=O)[C@H](CC(C)C)NC(=O)[C@@H](NC(=O)CCOC[C@H]1O[C@H](OCCNC(=O)[C@@H](NC(=O)[C@H](C)NC(=O)OC(C)(C)C)C(C)C)[C@H](OC(C)=O)[C@@H](OC(C)=O)[C@@H]1OC(C)=O)C(C)C`, the “fold change (FC)” value in assay [1] is “inactive”. The outcome in [2] was inactive. Further, in [3], the “fold change in aggregation half-life” value is “inactive”. In addition, in assay [4], the inhibition result was “inactive”.
Consider `COC(=O)[C@H](CC(C)C)NC(=O)[C@@H](NC(=O)OC(C)(C)C)C(C)C` (Boc-Val-Leu-OMe), for which the “fold change (FC)” value in assay [1] was “inactive”. Moreover, the result in [2] was inactive. Further, the “fold change in aggregation half-life” value in assay [3] was “inactive”. The inhibition entry in [4] is “inactive”.
As for `COC(=O)[C@H](CC(C)C)NC(=O)[C@@H](NC(=O)CCOC[C@H]1OC(O)[C@H](OCc2ccccc2)[C@@H](OCc2ccccc2)[C@@H]1OCc1ccccc1)C(C)C` (stereo partly drawn), in [1], the fold change (FC) came to 0.8. Also, the Activity in assay [12] was determined as 14%. The “fold change in aggregation half-life” value in assay [3] is “inactive”. The inhibition result in assay [4] is “inactive”.
For the molecule `COC(=O)[C@H](CC(C)C)NC(=O)[C@@H](N)C(C)C` (H-Val-Leu-OMe), the “fold change (FC)” value in [1] is “inactive”. For the same molecule, in assay [2], the outcome was inactive. Besides, the “fold change in aggregation half-life” value in [3] is “inactive”. Moreover, the inhibition entry in [4] was “inactive”.
For `COC(=O)[C@H](CC(C)C)NC(=O)[C@@H](NC(=O)CCOC[C@H]1O[C@@H](OCCCNC(=O)[C@@H](NC(=O)[C@H](C)NC(=O)OC(C)(C)C)C(C)C)[C@H](OC(C)=O)[C@@H](OC(C)=O)[C@@H]1OC(C)=O)C(C)C`, in assay [1], the “fold change (FC)” value was “inactive”. For the same molecule, the outcome in [2] was inactive. Moreover, in assay [3], the “fold change in aggregation half-life” value was “inactive”. The inhibition entry in [4] is “inactive”.
As to `COC(=O)[C@H](CC(C)C)NC(=O)[C@@H](NC(=O)CCOC[C@H]1O[C@@H](OCCNC(=O)[C@@H](NC(=O)[C@H](C)NC(=O)OC(C)(C)C)C(C)C)[C@H](O)[C@@H](O)[C@@H]1O)C(C)C` (Boc-AV[X2]VL-OMe), the fold change (FC) in assay [1] came to 1.8. In addition, in assay [2], the Activity amounted to 29%. In addition, in assay [3], the “fold change in aggregation half-life” value is “inactive”. Moreover, the inhibition result in assay [4] is “inactive”.
For the molecule `OC[C@H]1OC(O)[C@H](O)[C@@H](O)[C@@H]1O` (stereo partly drawn), in assay [1], the “fold change (FC)” value was “inactive”. Further, the outcome in assay [2] was inactive. In addition, the “fold change in aggregation half-life” value in [3] was “inactive”. Further, in assay [4], the inhibition result is “inactive”.
`COC(=O)[C@H](CC(C)C)NC(=O)[C@@H](NC(=O)CCOC[C@H]1O[C@H](OCCNC(=O)[C@@H](NC(=O)[C@H](C)NC(=O)OC(C)(C)C)C(C)C)[C@H](O)[C@@H](O)[C@@H]1O)C(C)C` (Boc-AV[X3]VL-OMe): in assay [1], the “fold change (FC)” value was “inactive”. Further, the outcome in assay [2] was inactive. In addition, the “fold change in aggregation half-life” value in [3] is “inactive”. In addition, the inhibition entry in assay [4] is “inactive”.
For `COC(=O)[C@H](CC(C)C)NC(=O)[C@@H](NC(=O)CCOC[C@H]1O[C@@H](OCCCNC(=O)[C@@H](NC(=O)[C@H](C)NC(=O)OC(C)(C)C)C(C)C)[C@H](OCc2ccccc2)[C@@H](OCc2ccccc2)[C@@H]1OCc1ccccc1)C(C)C`, the fold change (FC) in [1] stood at 0.7. The Activity in assay [12] was found to be 27%. For the same molecule, the “fold change in aggregation half-life” value in [3] was “inactive”. The inhibition entry in assay [4] and in assay [7] was “inactive” throughout. The inhibition entry in [5] and in [13] was “Active” in each case.

These data come from ChEMBL document CHEMBL3351958, “Structure-activity relationships of sugar-based peptidomimetics as modulators of amyloid β-peptide early oligomerization and fibrillization” (Eur J Med Chem, 2014).
